{"source": "patent US6787569B1", "about": "“Therapeutic guanidines” (Cambridge NeuroScience, Inc., priority 1994, dated 2004)", "key": {"[1]": {"tested_on": "veratridine-induced 3H-glutamate release from brain nerve terminals (voltage-activated presynaptic Na channels)", "assay": "Inhibition of veratridine-induced 3H-glutamate release, rapid superfusion of synaptosomes", "type": "biochemical, rat", "settings": "1 μM compound; 50 μM veratridine-induced release; rat brain synaptosomes"}, "[2]": {"target": "Type II neuronal voltage-activated sodium channels (Rattus norvegicus, UniProt P04775)", "sequence (P04775 whole entry)": "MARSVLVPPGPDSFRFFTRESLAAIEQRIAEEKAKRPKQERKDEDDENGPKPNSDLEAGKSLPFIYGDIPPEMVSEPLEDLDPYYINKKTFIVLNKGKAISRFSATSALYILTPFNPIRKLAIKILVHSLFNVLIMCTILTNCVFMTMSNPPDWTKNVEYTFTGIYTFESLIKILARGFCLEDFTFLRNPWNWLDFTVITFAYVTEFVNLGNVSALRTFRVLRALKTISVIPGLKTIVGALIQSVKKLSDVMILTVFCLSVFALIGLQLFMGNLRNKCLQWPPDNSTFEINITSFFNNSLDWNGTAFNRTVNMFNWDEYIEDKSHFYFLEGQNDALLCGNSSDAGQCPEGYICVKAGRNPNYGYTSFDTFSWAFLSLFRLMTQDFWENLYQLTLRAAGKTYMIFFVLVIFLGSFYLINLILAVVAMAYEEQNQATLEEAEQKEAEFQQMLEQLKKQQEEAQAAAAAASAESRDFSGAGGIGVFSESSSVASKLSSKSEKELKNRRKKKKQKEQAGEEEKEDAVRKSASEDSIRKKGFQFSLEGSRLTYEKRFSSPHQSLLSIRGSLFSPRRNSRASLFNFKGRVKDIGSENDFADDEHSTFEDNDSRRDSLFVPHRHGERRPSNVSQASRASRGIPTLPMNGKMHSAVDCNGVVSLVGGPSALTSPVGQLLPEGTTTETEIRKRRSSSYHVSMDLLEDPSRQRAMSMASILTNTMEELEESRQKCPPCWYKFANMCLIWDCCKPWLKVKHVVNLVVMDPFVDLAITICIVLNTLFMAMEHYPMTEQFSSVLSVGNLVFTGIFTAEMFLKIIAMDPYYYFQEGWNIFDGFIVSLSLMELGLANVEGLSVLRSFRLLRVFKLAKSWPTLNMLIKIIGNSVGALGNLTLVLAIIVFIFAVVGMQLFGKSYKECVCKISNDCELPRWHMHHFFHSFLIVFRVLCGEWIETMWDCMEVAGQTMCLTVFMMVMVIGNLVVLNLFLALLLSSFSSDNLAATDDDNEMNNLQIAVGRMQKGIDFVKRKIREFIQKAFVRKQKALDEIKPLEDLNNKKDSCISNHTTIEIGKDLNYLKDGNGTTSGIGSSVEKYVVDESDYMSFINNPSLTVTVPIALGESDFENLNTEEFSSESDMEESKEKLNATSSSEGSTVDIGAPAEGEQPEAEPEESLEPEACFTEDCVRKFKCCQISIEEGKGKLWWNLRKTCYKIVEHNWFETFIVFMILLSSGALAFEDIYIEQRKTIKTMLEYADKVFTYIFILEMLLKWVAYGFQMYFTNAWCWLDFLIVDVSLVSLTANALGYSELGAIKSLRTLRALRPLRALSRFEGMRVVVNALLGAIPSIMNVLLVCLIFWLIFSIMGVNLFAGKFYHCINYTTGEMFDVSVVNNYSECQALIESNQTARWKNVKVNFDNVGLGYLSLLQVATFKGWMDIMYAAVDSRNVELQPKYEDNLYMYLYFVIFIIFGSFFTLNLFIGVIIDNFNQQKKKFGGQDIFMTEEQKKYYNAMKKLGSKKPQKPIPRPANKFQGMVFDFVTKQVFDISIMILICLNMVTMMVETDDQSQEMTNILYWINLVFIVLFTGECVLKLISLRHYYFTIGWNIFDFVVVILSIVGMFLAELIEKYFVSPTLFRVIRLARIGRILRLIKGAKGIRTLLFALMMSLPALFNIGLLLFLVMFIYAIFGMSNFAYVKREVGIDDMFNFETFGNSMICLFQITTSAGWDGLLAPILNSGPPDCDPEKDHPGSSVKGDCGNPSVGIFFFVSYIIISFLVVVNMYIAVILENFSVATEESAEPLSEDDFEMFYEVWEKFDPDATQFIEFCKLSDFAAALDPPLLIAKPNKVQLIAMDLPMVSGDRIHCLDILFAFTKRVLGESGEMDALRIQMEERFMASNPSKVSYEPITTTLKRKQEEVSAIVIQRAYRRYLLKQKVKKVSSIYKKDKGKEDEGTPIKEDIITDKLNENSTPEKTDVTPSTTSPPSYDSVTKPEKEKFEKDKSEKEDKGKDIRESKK", "assay": "cell-based"}, "[3]": {"tested_on": "depolarization-induced 3H-glutamate release from brain nerve terminals", "assay": "Inhibition of 3H-glutamate release, high [K+] depolarization, rapid superfusion of synaptosomes", "type": "biochemical", "settings": "rat brain synaptosomes; for % Inhibition of ^3H-Glu Rel @ 0.3 μM: 0.3 μM compound; for % Inhibition of ^3H-Glu Rel @ 3 μM: 3 μM compound; for % Inhibition of ^3H-Glu Rel @ 1 μM: 1 μM compound"}, "[4]": {"tested_on": "audiogenic seizures in DBA/2 mice", "assay": "In vivo anticonvulsant activity in the DBA/2 mouse model (audiogenic seizures)", "settings": "30 minutes prior to auditory stimulus", "experimental": "Compounds were tested for their effectiveness in preventing seizures in DBA/2 mice which have a unique sensitivity to auditory stimulation. Exposure to loud high-frequency sounds can trigger seizure activity in these animals. This sensitivity develops from postnatal day 12 and peaks around day 21 and slowly diminishes as the animals mature. The unusual response to auditory stimulation in this strain of mouse is believed to be due to a combination of early myelination (causing an unusually low excitatory threshold) and delayed development of inhibitory mechanisms. Glutamate, the predominant excitatory neurotransmitter, has been implicated in this response. Blockade of glutamate receptors of the NMDA and AMPA subtypes, prevents audiogenic seizures in these mice. Compounds that block the release of glutamate should similarly act to prevent seizure activity, and may be therapeutic in other neurologic disorders such as stroke, which also involves glutamate-mediated damage.\nMice were injected intraperitoneally with the compound specified in Table V below or with vehicle control, 30 minutes prior to being placed in a bell jar and turning on the auditory stimulus (12 KHz sine wave at 110-120 db). Administered doses are specified in Table V as milligram of compound per kilogram bodyweight of mouse. The auditory stimulus was left on for 60 seconds and mice reactions were timed and recorded.\nPercentage inhibition was determined with reference to vehicle controls."}, "[5]": {"settings": "veratridine (100 μM)-induced, tetrodotoxin-sensitive uptake, CHO cells expressing rat brain Type II Na channels, read-out: IC50, block of ^14C guanidinium uptake"}}, "note": "Where a name gives a salt, the structure may show the parent alone. Read-outs that look alike come from different tables or passages of the source."}
{"compound": "CCC(C)c1ccc(NC(=N)N(C)c2ccc(C(C)CC)cc2)cc1.Cl", "note": "(stereo not drawn) [Example 5, N,N′-bis(4-sec-Butylphenyl)-N-methyl guanidine.HCl]", "values": [{"measurement": "% Inhibition of ^3H-Glu Rel @ 1 μM (*veratridine-induced glutamate release assay)", "setting": "[1]", "result": "68* %"}]}
{"compound": "CC(C)(C)c1ccc(CN(C(=N)N)c2ccc(C3CCCCC3)cc2)cc1", "note": "[Example 21, N-(4-Cyclohexylphenyl)-N-(4-tert-butylbenzyl)guanidine.HCl]", "values": [{"measurement": "IC50", "setting": "[2]; [5]", "result": 1.9, "unit": "µM"}]}
{"compound": "CC(C)(C)c1ccc(CN(C(=N)NN2CCOCC2)c2ccc(OCc3ccccc3)cc2)cc1.Cl", "note": "[Example 79, N-(4-Benzyloxyphenyl)-N-(4-tert-butylbenzyl)-N′-(4-morpholinyl)guanidine.HCl]", "values": [{"measurement": "% Inhibition of ^3H-Glu Rel @ 0.3 μM", "setting": "[3]", "result": 77, "unit": "%"}, {"measurement": "Audiogenic Response % Inhib.", "setting": "[4]; 20 mg/kg intraperitoneally", "result": 41, "unit": "%"}, {"measurement": "Audiogenic Response % Inhib.", "setting": "[4]; 40 mg/kg intraperitoneally", "result": 68, "unit": "%"}]}
{"compound": "N=C(Nc1ccc2ccccc2c1)NC1C2CC3CC(C2)CC1C3", "note": "(stereo not drawn) [Example 16, N-(2-Naphthyl)-N′-(2-adamantyl)guanidine.HCl]", "values": [{"measurement": "IC50", "setting": "[2]; [5]", "result": 0.5, "unit": "µM"}]}
{"compound": "CC(C)c1ccc(CN(C(=N)N)c2ccc(C3CCCCC3)cc2)cc1", "note": "[Example 20, N-(4-Cyclohexylphenyl)-N-(4-isopropylbenzyl)guanidine.HCl]", "values": [{"measurement": "IC50", "setting": "[2]; [5]", "result": 0.9, "unit": "µM"}]}
{"compound": "CCC(C)c1ccc(N2CCCN(c3ccc(C(C)CC)cc3)C2=N)cc1", "note": "(stereo not drawn) [Example 8, N,N′-Bis-(4-sec-butylphenyl)-2-iminopyrimidazolidine.HBr]", "values": [{"measurement": "% Inhibition of ^3H-Glu Rel @ 3 μM", "setting": "[3]", "result": 50, "unit": "%"}, {"measurement": "IC50", "setting": "[2]", "result": 0.2, "unit": "µM"}, {"measurement": "Audiogenic Response % Inhib.", "setting": "[4]; 2 mg/kg intraperitoneally", "result": 41, "unit": "%"}, {"measurement": "Audiogenic Response % Inhib.", "setting": "[4]; 4 mg/kg intraperitoneally", "result": 75, "unit": "%"}]}
{"compound": "CC(C)(C)c1ccc(NC(=N)Nc2cccc(OCc3ccccc3)c2)cc1.CS(=O)(=O)O", "note": "[Example 108, N-(3-Benzyloxy)phenyl-N′-(4-tert-butylphenyl)guanidine.mesylate]", "values": [{"measurement": "% Inhibition of ^3H-Glu Rel @ 0.3 μM", "setting": "[3]", "result": 49, "unit": "%"}, {"measurement": "Audiogenic Response % Inhib.", "setting": "[4]; 40 mg/kg intraperitoneally", "result": 80, "unit": "%"}]}
{"compound": "CC(C)(C)c1ccc(CN(C(=N)N)c2cccc(OC(F)(F)F)c2)cc1.Cl", "note": "[Example 27, N-(3-Trifluoromethoxyphenyl)-N-(4-tert-butylbenzyl)guanidine.HCl]", "values": [{"measurement": "% Inhibition of ^3H-Glu Rel @ 1 μM", "setting": "[3]", "result": 24, "unit": "%"}, {"measurement": "IC50", "setting": "[2]; [5]", "result": 1.2, "unit": "µM"}]}
{"compound": "CC(C)(C)c1ccc(NC(=N)Nc2ccc(Cl)c(Cl)c2Cl)cc1.Cl", "note": "[Example 14, N-(4-tert-Butylphenyl)-N′-(2,3,4-trichlorophenyl)guanidine.HCl]", "values": [{"measurement": "% Inhibition of ^3H-Glu Rel @ 3 μM", "setting": "[3]", "result": 63, "unit": "%"}, {"measurement": "IC50", "setting": "[2]; [5]", "result": 1.8, "unit": "µM"}]}
{"compound": "N=C(Nc1ccc2c(c1)Cc1ccccc1-2)Nc1ccc2c(c1)Cc1ccccc1-2", "note": "[Example 12, N,N′-Bis(2-fluorenyl)guanidine.HBr]", "values": [{"measurement": "IC50", "setting": "[2]; [5]", "result": 1.5, "unit": "µM"}]}
{"compound": "CC(C)c1ccc(NC(=N)Nc2ccc3ccccc3c2)cc1", "note": "[Example 11, N-(2-Naphthyl)-N′-(4-isopropylphenyl)guanidine.HCl]", "values": [{"measurement": "IC50", "setting": "[2]; [5]", "result": 0.9, "unit": "µM"}]}
{"compound": "CC(C)(C)c1ccc(CN(C(=N)N)c2ccc3c(c2)Cc2ccccc2-3)cc1", "note": "[Example 22, N-(2-Fluorenyl)-N-(4-tert-butylbenzyl)guanidine.HCl]", "values": [{"measurement": "IC50", "setting": "[2]; [5]", "result": 0.5, "unit": "µM"}]}
{"compound": "N-(4-sec-Butylphenyl)-N-(4-t-butylbenzyl)-N′-pyrrolidinylguanidine.HCl [Example 72]", "values": [{"measurement": "% Inhibition of ^3H-Glu Rel @ 0.3 μM", "setting": "[3]", "result": 48, "unit": "%"}, {"measurement": "Audiogenic Response % Inhib.", "setting": "[4]; 20 mg/kg intraperitoneally", "result": 52, "unit": "%"}, {"measurement": "Audiogenic Response % Inhib.", "setting": "[4]; 40 mg/kg intraperitoneally", "result": 81, "unit": "%"}]}
{"compound": "CCCCc1ccc(NC(=N)N(C)c2ccc(OCc3ccccc3)cc2)cc1.CS(=O)(=O)O", "note": "[Example 110, N-(4-Benzyloxyphenyl)-N-methyl-N′-(4-butylphenyl)guanidine.mesylate]", "values": [{"measurement": "% Inhibition of ^3H-Glu Rel @ 0.3 μM", "setting": "[3]", "result": 77, "unit": "%"}, {"measurement": "Audiogenic Response % Inhib.", "setting": "[4]; 20 mg/kg intraperitoneally", "result": 42.3, "unit": "%"}, {"measurement": "Audiogenic Response % Inhib.", "setting": "[4]; 40 mg/kg intraperitoneally", "result": 92.5, "unit": "%"}]}
{"compound": "CCC(C)c1ccc(N(Cc2ccc(C(C)(C)C)cc2)C(=N)NN2CCSCC2)cc1.Cl", "note": "(stereo not drawn) [Example 73, N-(4-sec-Butylphenyl)-N-(4-t-butylbenzyl)-N′-(4-thiomorpholinyl)guanidine.HCl]", "values": [{"measurement": "% Inhibition of ^3H-Glu Rel @ 1 μM", "setting": "[3]", "result": 59, "unit": "%"}, {"measurement": "Audiogenic Response % Inhib.", "setting": "[4]; 20 mg/kg intraperitoneally", "result": 23, "unit": "%"}, {"measurement": "Audiogenic Response % Inhib.", "setting": "[4]; 40 mg/kg intraperitoneally", "result": 89, "unit": "%"}]}
{"compound": "CC(C)(C)c1ccc(CN(C(=N)N)c2ccc3c(c2)CCC3)cc1", "note": "[Example 26, N-(5-Indanyl)-N-(4-tert-butylbenzyl)guanidine.HCl]", "values": [{"measurement": "IC50", "setting": "[2]; [5]", "result": 0.7, "unit": "µM"}]}
